Assay: Incorporation of glycoconjugate into SDBS-rich vesicles (SEC, colorimetric detection)
Assay type: physicochemical
Details: SDBS/CTAT vesicles, twelve carbon tail
Text: In an experiment, glycoconjugates consisting of eight carbon tails were used. In all SDBS-rich vesicle test cases 18-25% of the conjugate eluted with the vesicle fractions. At the incorporation levels summarized in Table 1, the ratio of carbohydrate conjugate to surfactant is approximately 1:100. […] In another experiment, a glucose glycoconjugate with a twelve carbon tail, n-dodecyl-β-D-glucopyranoside (C12-glucose), was used. […] The method for preparing these vesicles is now described. Vesicles were prepared with the surfactants […], and C12-glu. […] Total surfactant concentration was kept constant at 27 mM. The mole ratio of SDBS to CTAT was 3:1 in all cases (70:30 w/w). For vesicle samples containing different mole fractions of C12-glu, the amount of SDBS and CTAT was adjusted accordingly to keep the stated ratio of ionic surfactants constant. […] Samples were then passed through a 0.45 μm syringe filter to remove impurity particles such as dust.

CCCCCCCCCCCCO[C@@H]1O[C@H](CO)[C@@H](O)[C@H](O)[C@H]1O [C12-glucose, n-dodecyl-β-D-glucopyranoside]
share of the vesicle bilayer that can be composed of the glycoconjugate: up to 40 mole percent
